Structures can show the parent of a compound that is named as a salt.
Key:
p75NTR receptor [1] = target: T1, p75NTR receptor (Homo sapiens, UniProt P08138); test: Dimerization of the p75NTR receptor independently of its ligand (soluble p75NTR-alkaline phosphatase binding to SK-N-BE Bep 75 cells); set-up: the Bep 75 clone, stably expressing the whole form of the human p75^NTRreceptor; a soluble form of the p75^NTRreceptor (extracellular part of the receptor); expressed in transfected cells; host or cells: SK-N-BE Bep 75 cells (membrane receptor); transiently transfected HEK293 cells (secreted soluble p75NTR-alkaline phosphatase, used as culture supernatant); settings: soluble p75NTR-alkaline phosphatase 10 nM, 1 h preincubation at 37° C.
T1 sequence (P08138 29-427): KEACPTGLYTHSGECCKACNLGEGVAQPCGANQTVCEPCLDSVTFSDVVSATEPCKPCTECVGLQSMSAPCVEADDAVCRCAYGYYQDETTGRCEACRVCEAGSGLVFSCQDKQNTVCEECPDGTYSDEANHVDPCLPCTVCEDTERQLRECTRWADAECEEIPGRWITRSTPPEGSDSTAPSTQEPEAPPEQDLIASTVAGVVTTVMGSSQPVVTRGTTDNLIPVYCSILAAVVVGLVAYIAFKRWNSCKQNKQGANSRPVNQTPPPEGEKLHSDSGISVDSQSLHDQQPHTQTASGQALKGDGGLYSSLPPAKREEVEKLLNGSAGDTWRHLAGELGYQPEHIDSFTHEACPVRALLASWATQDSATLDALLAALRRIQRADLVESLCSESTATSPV
Description: (§1) The SK-N-BE parent strain (human neuroblastoma) and the Bep 75 clone, stably expressing the whole form of the human p75^NTRreceptor (SK-N-BE Bep 75) are cultured conventionally in a RPMI culture medium containing FCS (5%), sodium pyruvate (1 mM) and glutamine (4 mM). For the SK-N-BE Bep 75 cells, hygromycin (200 μl/20 ml of medium) is added as selection agent.
Study of the dimerization of the p75^NTRreceptor independently of its ligand
The p75^NTRreceptor dimerization study is carried out on a cell suspension of the SK-N-BE Bep 75 strain. The cells (2.5 10^4cells/well) are placed in wells (96-well plate) for 24 h, and then preincubated for 1 h at 37° C. in the presence or absence of the compounds according to the invention. Supernatant is then added, this supernatant being derived from the culture of HEK293 human cells of renal origin expressing, after 48 h of transfection, and secreting a soluble form of the p75^NTRreceptor (extracellular part of the receptor) coupled to an alkaline phosphatase, at the final concentration of 10 nM. The quantification of the specific binding of the soluble p75^NTRreceptor to the receptor present on SK-N-BE Bep 75 cells is determined by measuring the alkaline phosphatase enzymatic activity after incubation of the cells for 1 hour at 37° C. in the presence of the supernatant. After filtration and transfer of the filters into 24-well plates, the alkaline phosphatase activity is determined by adding CDP-Star chemiluminescent substrate (ready-to-use, Roche).

[2] = test system: human neuroblastoma strains SH-SY-5Y and SK-N-BE Bep 75; test: Measurement of apoptosis (NGF-induced, cell death detection ELISA); format: cell-based; settings: SH-SY5Y, NGF 10 ng/ml, cell strain not given, read-out: IC50, inhibitory activity on NGF-induced apoptosis
Description: The SH-SY-5Y strain (human neuroblastoma) is cultured conventionally in a DMEM culture medium (Dulbecco's Modified Eagle's Medium) (Gibco BRL, France) containing FCS (5%) (foetal calf serum) (Boehringer Mannheim, Germany), sodium pyruvate (1 mM) and glutamine (4 mM) in culture flasks coated with collagen (Becton Dickinson, France).
as §1
The cells (human neuroblastoma strains SH-SY-5Y and SK-N-BE Bep 75) are placed in 35 mm diameter Petri dishes (Biocoat collagen I), (10^5cells/well) in an appropriate culture medium containing 5% of FCS for 24 h. […] The degrees of apoptosis are measured 48 hours after the treatments in the case of the SH-SY-5Y strain, and 24 hours after the treatments in the case of the SK-N-BE Bep 75 strain, by quantification of the DNA fragment-associated cytoplasmic histones (cell death detection ELISA, Boehringer Mannheim, Germany). The degrees of apoptosis are expressed as amount of oligonucleosomes/10^5cells. […]

p75NTR receptor [3] = target: T1, p75NTR receptor; test: Binding of 125I NGF to the p75NTR receptor (competition, SK-N-BE Bep 75 cell suspension); set-up: the Bep 75 clone, stably expressing the whole form of the human p75^NTRreceptor; expressed in transfected cells; host or cells: SK-N-BE Bep 75 (human neuroblastoma clone, hygromycin selection); settings: SK-N-BE Bep 75 cells; 125I NGF 0.3 nM
Description: as §1
Study of the binding of the ^125I NGF to the p75^NTRreceptor
The NGF binding study (nerve grown factor radiolabelled with iodine-125, Amersham—2000 Ci/mmol) is carried out on a cell suspension of the SK-N-BE Bep 75 strain in accordance with the method described by Weskamp (Neuron, 1991, 6, 649-663). The nonspecific binding is determined by measuring the total binding after one hour of pre-incubation with the cells at 37° C. in the presence of non-radiolabelled NGF (1 μM). The specific binding is calculated by the difference between the total binding measurement and the non-specific binding measurement. The competition experiments are carried out using an iodinated NGF (^125I NGF) concentration of 0.3 nM.

Structure (SMILES) | melting point [°C] | IC50 (p75NTR receptor [1]) [nM] | IC50 [2] [nM] | IC50 (p75NTR receptor [3]) [nM]
O=C(CN1CCN(c2ccc(C(F)(F)F)cn2)C(=O)C1)N1CC=C(c2ccc(Cl)c(C(F)(F)F)c2)CC1 (as salt: HCl) [Compound 1, 4-{2-[4-(4-chloro-3-trifluoromethylphenyl)-3,6-dihydro-2H-pyridin-1-yl]-2-oxoethyl}-1-(5-trifluoromethylpyridin-2-yl)piperazin-2-one] | 210 to 211 |  |  | 
Cc1ccc(N2CCN(CC(=O)N3CC=C(c4ccc(Cl)c(C(F)(F)F)c4)CC3)CC2=O)nc1 (as salt: HCl) [Compound 2, 4-{2-[4-(4-chloro-3-trifluoromethylphenyl)-3,6-dihydro-2H-pyridin-1-yl]-2-oxoethyl}-1-(5-methylpyridin-2-yl)piperazin-2-one] | 236 to 239 |  |  | 
O=C(CN1CCN(c2ccccn2)C(=O)C1)N1CC=C(c2ccc(Cl)c(C(F)(F)F)c2)CC1 (as salt: HCl) [Compound 5, 4-{2-[4-(4-chloro-3-trifluoromethylphenyl)-3,6-dihydro-2H-pyridin-1-yl]-2-oxoethyl}-1-pyridin-2-ylpiperazin-2-one] | 160 to 163 |  |  | 
O=C(CN1CCN(c2ccc(C(F)(F)F)cn2)C(=O)C1)N1CC=C(c2ccc(Cl)c(C(F)(F)F)c2)CC1 [Compound 1, 4-{2-[4-(4-chloro-3-trifluoromethylphenyl)-3,6-dihydro-2H-pyridin-1-yl]-2-oxoethyl}-1-(5-trifluoromethylpyridin-2-yl)piperazin-2-one] |  | 1.34 | 1.61 | 5.2
Cc1ccc(N2CCN(CC(=O)N3CC=C(c4ccc(Cl)c(C(F)(F)F)c4)CC3)CC2=O)nc1 [Compound 2, 4-{2-[4-(4-chloro-3-trifluoromethylphenyl)-3,6-dihydro-2H-pyridin-1-yl]-2-oxoethyl}-1-(5-methylpyridin-2-yl)piperazin-2-one] |  | 3.88 |  | 
O=C(CN1CCN(c2ccc(C(F)(F)F)cn2)C(=O)C1)N1CC=C(c2ccc(Cl)cc2)CC1 [Compound 3, 4-{2-[4-(4-chlorophenyl)-3,6-dihydro-2H-pyridin-1-yl]-2-oxoethyl}-1-(5-trifluoromethylpyridin-2-yl)piperazin-2-one] | 141 to 143 | 0.11 |  | 0.1
O=C(CN1CCN(c2ccccn2)C(=O)C1)N1CC=C(c2ccc(Cl)c(C(F)(F)F)c2)CC1 [Compound 5, 4-{2-[4-(4-chloro-3-trifluoromethylphenyl)-3,6-dihydro-2H-pyridin-1-yl]-2-oxoethyl}-1-pyridin-2-ylpiperazin-2-one] |  |  | 52 | 
